We go through 9 compounds from patent US9808473B2, “Preparation and use of 3-pyridyl substituted-6,6-difluoro bicyclic himbacine derivatives as par-1 receptor antagonists” (Merck Sharp & Dohme Corp., priority 2013, dated 2017).

In one data set the target is T1, PAR-1 receptor (Homo sapiens, UniProt P25116).
T1 construct: endogenous in cells; host or cells: HEK 293
T1 sequence (P25116 22-425): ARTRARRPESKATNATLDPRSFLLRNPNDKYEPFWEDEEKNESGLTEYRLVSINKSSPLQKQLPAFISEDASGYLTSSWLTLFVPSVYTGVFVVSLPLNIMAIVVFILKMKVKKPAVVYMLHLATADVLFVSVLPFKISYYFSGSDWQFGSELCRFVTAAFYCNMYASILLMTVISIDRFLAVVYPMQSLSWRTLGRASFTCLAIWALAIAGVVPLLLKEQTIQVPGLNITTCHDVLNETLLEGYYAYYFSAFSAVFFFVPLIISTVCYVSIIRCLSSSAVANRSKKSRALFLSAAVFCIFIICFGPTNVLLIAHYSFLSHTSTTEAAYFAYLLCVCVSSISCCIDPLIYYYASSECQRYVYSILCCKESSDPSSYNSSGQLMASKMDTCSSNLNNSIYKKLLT
Nature of the data set: PAR-1 FLIPR Assay. The note with it: HEK 293 cells, calcium signal after PAR-1 selective receptor-activating peptide at EC80. The data set is classed as cell-based. As for the experimental part: This assay measures the potency of the inventive compounds as PAR-1 receptor antagonists.
Frozen HEK 293 Cells were plated in 384-well PDL coated plates at 12000 cells/well in 50 uL of DMEM media containing 10% FBS, pen/strep/L-Glutamine and non-essential amino acids, incubated overnight at 37° C./5% CO2. Media was then removed from the cells, incubated with 33 uL of Calcium-5 dye in assay buffer (Hank's buffer containing 20 mM HEPES, 0.04% Chaps and 2.5 mM Probenecid) for 60 minutes at 37° C. 2 uL of varying concentrations of compound in 40% DMSO in assay buffer (final DMSO concentration is 2.3%) were then added to the cells and incubated at 25° C. for 30 minutes. The plates were added to the FLIPR Tetra®, the device added 5 uL of PAR-1 selective receptor-activating peptide (sequence Ala-parafluoroPhe-Arg-Cha-Cit-Try-Nh2, prepared in water) at a concentration equal to the effective concentration that achieved 80% activation of signaling on the day of the experiment. The range of peptide was from 1.5-3 μM. The final volume was 40 uL/well, with 2% DMSO. The FLIPR was read at an excitation wavelength of 480 nm and an emission wavelength of 535 nm, and performed 60 scans over a 1-2 min reading time. The data were analyzed by taking the peak signal over a portion of the range of the 60 scans and dividing this signal by the minimum signal for that same range. The data were expressed as percent inhibition of the maximum divided by the minimum signal achieved at 80% activation produced by the PAR1 activating peptide on the test day. The compounds of Examples 1-9 were tested in the assay described above and the data collected for these compounds is provided.

In data set [1] the target is CYP3A4 (column heading prints CYP2D6; method and table sentence say CYP3A4) (Homo sapiens, UniProt P08684). The data set is described as follows: CYP MUX (3A4) RI. The data set is classed as in vitro ADME. The note with it: pH 7.4, probe testosterone (75 µM); human liver microsomes; method describes testosterone as substrate for 3A4. An excerpt: This assay measures inhibition of CYP3A4 by a compound. Cytochromes P450 (CYPs) constitute a superfamily of heme-containing enzymes that recognize and metabolize a large number structurally diverse xenobiotics in the human body. CYP3A4 constitutes the largest portion of CYP enzymes in the liver that accounts for the metabolism of almost 50% of all drugs. This assay is used to evaluate the potential of a compound for developing DDIs. (Clarke, S. E.; Jones B. C. Drug-Drug Interactions, New York: Marcel Dekker; 2002. pp. 53-88).
Compound dilutions and assay-ready plates were prepared on a TTP Labtech Mosquito® HTS. Assay conduction was fully automated on a customized Screening Platform from Caliper (now PerkinElmer) containing a Mitsubishi robotic plate handler, Liconic incubators, a Caliper Zephyr® liquid handling workstation equipped with temperature-controlled deck positions, a Biotek MultiFlo™ dispenser and an Agilent PlateLoc heat sealer. Assay plates were Corning Costar® 384 well PP plates. High throughput mass spectrometric readout was performed on a RapidFire® 300 system coupled to an AB Sciex API 4000™ triple quadrupole device. CYP isoform 3A4 was incubated in a separate reaction of 50 μL final volume. 25 μL of HLM (human liver microsomes, BD UltraPool™ 150, 0.25 mg/mL final concentration) and the respective substrate, testosterone (75 μM) for 3A4, in potassium phosphate buffer (100 mM, pH=7.4) were added to 250 nL of stamped compound solution (10 mM in DMSO). The reactions were started upon addition of 25 μL of a co-factor solution containing magnesium chloride (3.3 mM), glucose-6-phosphate (3.3 mM), glucose-6-phosphate dehydrogenase (1.4 units) and NADP (1 mM) in potassium phosphate buffer (100 mM, pH=7.4) and incubated on deck at 37° C. for 10 min. 8 μL of each reaction were transferred to the same readout plated filled with 48 μL of stop solution containing internal standards (concentration in final readout plate), 6-hydroxytestosterone-D7 (0.5 μM), 4′-hydroxydiclofenac-D4′-(0.2 μM), and dextrorphan-D3 (0.01 μM), in acetonitrile with 0.5% formic acid. After heat sealing, plates were stored at −20° C. for at least 30 min, centrifuged and subjected directly to RapidFire®/MS analysis.
(§1) Table 4 summarizes the selectivity of the inventive compounds in the CYP3A4 assay and the ability of the inventive compound to inhibit hERG.

In the next data set the target is T2, hERG channel (Homo sapiens, UniProt Q12809).
T2 construct: expressed in transfected cells; host or cells: HEK293, stably transfected; membranes
The data set is described as follows: MK-499 Filter Binding Assay. The note with it: [35S]MK-0499 radioligand competition, membranes of HEK293 cells expressing hERG, read-out: MK499 IC50; for IC50 at 90 min: human, pH 7.4, probe [35S]MK-0499 radioligand.
Excerpt: MK-499 Filter Binding Assay
This assay is used to evaluate the potential of a compound to cause drug-induced log QT syndrome.
Drug cardiac arrhythmia is an important safety concern for pharmaceutical development and health regulatory authorities. Blockade of heterologously-expressed human ether-à-go-go gene (hERG) channel prolongs the duration of the cardiac action potential leading to a long QT interval that can lead to sudden death (De Ponti, F.; et at Drug Safety 2002, 25, pp. 263-286). It is important to have compounds devoid of hERG channel activity as measured by an in vitro assay. Affinity of compounds for the hERG channel was evaluated in radioligand competition experiments using HEK293 cells that were stably transfected with the hERG channel and radiolabeled ligand, MK-499 a potent antiarrhythmic. This assay correlates well with QT prolongation in vivo (Jamieson, C.; et al., J. Med. Chem. 2006, 49, pp. 5029-5046).
25 μL Target membranes (in assay buffer: 10 mM HEPES/NaOH, pH 7.4, 70 mM NaCl, 60 mM KCl, 2 mM MgCl2, 1 mM CaCl2) purified from a HEK293 cell line expressing the human Ether-à-go-go Related Gene (hERG) ion channel, 1 μL test compound in 10 mM DMSO and 25 μL (6,000 cpm/well; in assay buffer) [35S]MK-0499 radioligand (Merck/Perkin Elmer) are added to the assay plate (Axygen; 384 Deep well “Diamond Plate”, clear). After incubation of the binding reaction at room temperature (RT) for 90 min 50 μL of the assay were transferred to a MultiscreenHTS 384 FC filter plate (Millipore), which has been pre-wetted with 20 μL 0.01% PEI/0.01% Triton X-100 for at least 30 min at RT. Then, 30 μL it wash buffer (10 mM HEPES/NaOH, pH 7.4, 130 mM NaCl, 2 mM MgCl2, 1 mM CaCl2) equilibrated to RT were added to each well of the assay plate and subsequently transferred to the filter plate. The assay mixture was aspirated through the filter plate using a Biotek ELx405™ washer. The filter plate was washed twice with 100 μl cold wash buffer per wash and well and then dried in a drying oven for at least 75 min at 55° C. Afterwards, the bottom of each filter plate was heat sealed with a solid foil seal, then 10 μL of Microscint™ 0 (Perkin Elmer) were added to each well of the filter plate and finally, the top of each filter plate was sealed with a clear seal. The plates were stored for at least 20 min in a MicroBeta2 reader (Perkin Elmer) before they are counted (60 sec/well).
as §1
(In general: Displacement assays read how much labelled ligand stays bound in the presence of the test substance.)

T2 sequence (Q12809 whole entry): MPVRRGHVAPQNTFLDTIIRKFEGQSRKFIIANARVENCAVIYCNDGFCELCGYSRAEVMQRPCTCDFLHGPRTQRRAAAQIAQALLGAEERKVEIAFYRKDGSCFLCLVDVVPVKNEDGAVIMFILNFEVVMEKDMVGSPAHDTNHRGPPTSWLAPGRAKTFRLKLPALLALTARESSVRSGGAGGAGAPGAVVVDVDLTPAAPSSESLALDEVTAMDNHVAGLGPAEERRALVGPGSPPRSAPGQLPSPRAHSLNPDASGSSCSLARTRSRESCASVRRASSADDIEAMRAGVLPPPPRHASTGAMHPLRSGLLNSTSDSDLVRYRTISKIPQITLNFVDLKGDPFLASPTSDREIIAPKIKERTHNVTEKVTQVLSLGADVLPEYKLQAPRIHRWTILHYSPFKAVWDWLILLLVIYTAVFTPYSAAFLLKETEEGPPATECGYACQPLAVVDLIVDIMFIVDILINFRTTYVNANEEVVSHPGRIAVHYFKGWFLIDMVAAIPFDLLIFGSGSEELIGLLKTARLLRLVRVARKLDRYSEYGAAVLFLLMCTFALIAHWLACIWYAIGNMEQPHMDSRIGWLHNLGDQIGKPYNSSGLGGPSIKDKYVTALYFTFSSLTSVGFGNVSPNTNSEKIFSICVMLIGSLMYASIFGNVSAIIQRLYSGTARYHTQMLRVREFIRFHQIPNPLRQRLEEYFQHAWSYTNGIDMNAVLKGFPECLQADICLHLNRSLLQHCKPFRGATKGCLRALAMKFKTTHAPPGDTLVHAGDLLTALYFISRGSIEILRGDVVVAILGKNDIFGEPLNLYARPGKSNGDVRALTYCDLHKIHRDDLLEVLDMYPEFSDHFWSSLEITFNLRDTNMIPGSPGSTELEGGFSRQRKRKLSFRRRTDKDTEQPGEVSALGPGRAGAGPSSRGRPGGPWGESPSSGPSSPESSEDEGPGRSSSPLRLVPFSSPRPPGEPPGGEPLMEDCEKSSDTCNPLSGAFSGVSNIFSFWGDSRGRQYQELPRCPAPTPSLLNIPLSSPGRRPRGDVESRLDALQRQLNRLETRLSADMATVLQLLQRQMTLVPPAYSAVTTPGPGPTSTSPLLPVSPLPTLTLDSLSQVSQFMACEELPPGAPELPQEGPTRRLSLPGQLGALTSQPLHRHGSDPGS
Chain of CYP3A4 (column heading prints CYP2D6; method and table sentence say CYP3A4) (P08684 2-503): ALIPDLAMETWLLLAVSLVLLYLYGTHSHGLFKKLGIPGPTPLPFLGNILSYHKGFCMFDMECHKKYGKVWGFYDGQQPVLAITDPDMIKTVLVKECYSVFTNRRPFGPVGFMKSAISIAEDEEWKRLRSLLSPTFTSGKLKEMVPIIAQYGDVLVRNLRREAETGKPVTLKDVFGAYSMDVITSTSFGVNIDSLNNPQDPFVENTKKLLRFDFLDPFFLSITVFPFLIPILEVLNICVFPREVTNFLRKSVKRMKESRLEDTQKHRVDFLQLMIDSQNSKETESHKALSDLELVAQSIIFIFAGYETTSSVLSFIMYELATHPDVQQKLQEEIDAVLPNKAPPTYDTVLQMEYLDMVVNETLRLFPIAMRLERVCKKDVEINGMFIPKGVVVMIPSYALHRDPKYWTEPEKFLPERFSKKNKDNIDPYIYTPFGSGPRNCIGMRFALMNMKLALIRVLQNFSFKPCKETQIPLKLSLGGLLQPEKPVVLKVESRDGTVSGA

One may read the IC50 as the point on the concentration scale where inhibition reaches its midpoint. In the case of `C[C@H]1OC(=O)[C@]2(O)CC(F)(F)[C@@H](C)[C@H](/C=C/c3ccc(-c4cccnc4C#N)cn3)[C@H]12` [Example 1, 6′-((E)-2-((3R,3aR,4R,5S,7aS)-6,6-difluoro-7a-hydroxy-3,5-dimethyl-1-oxooctahydroisobenzofuran-4-yl)vinyl)-[3,3′-bipyridine]-2-carbonitrile], the IC50 at PAR-1 receptor is 0.0059 µM. In data set [1], the IC50 at 10 min is at least 50 µM. In addition, the IC50 at 90 min at hERG channel was at least 60 µM.

Take `C[C@H]1OC(=O)[C@]2(O)CC(F)(F)[C@@H](C)[C@H](/C=C/c3ccc(-c4cccnc4-c4ccccc4)cn3)[C@H]12` [Example 2, (3R,3aR,4R,5S,7aS)-6,6-difluoro-7a-hydroxy-3,5-dimethyl-4-((E)-2-(2′-phenyl-[3,3′-bipyridin]-6-yl)vinyl)hexahydroisobenzofuran-1(3H)-one]: the IC50 was found to be 0.009 µM at PAR-1 receptor and 39.8 µM at hERG channel. The compound further displayed an IC50 at 10 min in data set [1] of 28.5 µM.

As to `COc1ncccc1-c1ccc(/C=C/[C@@H]2[C@@H]3[C@@H](C)OC(=O)[C@]3(O)CC(F)(F)[C@H]2C)nc1` [Example 3, (3R,3aR,4R,5S,7aS)-6,6-difluoro-7a-hydroxy-4-((E)-2-(2′-methoxy-[3,3′-bipyridin]-6-yl)vinyl)-3,5-dimethylhexahydroisobenzofuran-1(3H)-one], the IC50 on PAR-1 receptor stood at 0.0054 µM. In addition, the IC50 at 10 min in data set [1] is at least 50 µM. The IC50 at 90 min at hERG channel is at least 60 µM.

With `C[C@H]1OC(=O)[C@]2(O)CC(F)(F)[C@@H](C)[C@H](/C=C/c3ccc(-c4cccnc4Cl)cn3)[C@H]12` [Example 4, (3R,3aR,4R,5S,7aS)-4-((E)-2-(2′-chloro-[3,3′-bipyridin]-6-yl)vinyl)-6,6-difluoro-7a-hydroxy-3,5-dimethylhexahydroisobenzofuran-1(3H)-one], the IC50 at PAR-1 receptor turned out to be 0.0078 µM; on hERG channel, 18.7 µM. The same compound came in with an IC50 at 10 min in data set [1] of at least 50 µM.

Consider `C[C@H]1OC(=O)[C@]2(O)CC(F)(F)[C@@H](C)[C@H](/C=C/c3ccc(-c4cccnc4F)cn3)[C@H]12` [Example 5], for which the IC50 on PAR-1 receptor came to 0.0162 µM. In data set [1], this compound displayed an IC50 at 10 min of at least 50 µM. In addition, the IC50 at 90 min on hERG channel is at least 60 µM.

`C[C@H]1OC(=O)[C@]2(O)CC(F)(F)[C@@H](C)[C@H](/C=C/c3ccc(-c4cccnc4C4CC4)cn3)[C@H]12` [Example 6, (3R,3aR,4R,5S,7aS)-4-((E)-2-(2′-cyclopropyl-[3,3′-bipyridin]-6-yl)vinyl)-6,6-difluoro-7a-hydroxy-3,5-dimethylhexahydroisobenzofuran-1(3H)-one]: the IC50 at PAR-1 receptor worked out at 0.0104 µM. In data set [1], this compound had an IC50 at 10 min of at least 50 µM. The IC50 at 90 min on hERG channel is at least 60 µM.

With `Cc1ccc(-c2ncccc2-c2ccc(/C=C/[C@@H]3[C@@H]4[C@@H](C)OC(=O)[C@]4(O)CC(F)(F)[C@H]3C)nc2)s1` [Example 7, (3R,3aR,4R,5S,7aS)-6,6-difluoro-7a-hydroxy-3,5-dimethyl-4-((E)-2-(2′-(5-methylthiophen-2-yl)-[3,3′-bipyridin]-6-yl)vinyl)hexahydroisobenzofuran-1(3H)-one], the IC50 at PAR-1 receptor was 0.0152 µM; on hERG channel it was 20.8 µM. Besides, the IC50 at 10 min in data set [1] was at least 50 µM.

The compound `C[C@H]1OC(=O)[C@]2(O)CC(F)(F)[C@@H](C)[C@H](/C=C/c3ccc(-c4cccnc4-c4cncn4C)cn3)[C@H]12` [Example 8, (3R,3aR,4R,5S,7aS)-6,6-difIuoro-7a-hydroxy-3,5-dimethyl-4-((E)-2-(2′-(l-methyl-1H-imidazol-5-yl)-[3,3′-bipyridin]-6-yl)vinyl)hexahydroisobenzofuran-1(3H)-one] registered an IC50 at 10 min in data set [1] of at least 50 µM. For the same compound, the IC50 at 90 min at hERG channel is at least 60 µM.

As to `C[C@H]1OC(=O)[C@]2(O)CC(F)(F)[C@@H](C)[C@H](/C=C/c3ccc(-c4cccnc4N4CC(F)(F)C4)cn3)[C@H]12` [Example 9, (3R,3aR,4R,5S,7aS)-4-((E)-2-(2′-(3,3-difluoroazetidin-1-yl)-[3,3′-bipyridin]-6-yl)vinyl)-6,6-difluoro-7a-hydroxy-3,5-dimethylhexahydroisobenzofuran-1(3H)-one], the IC50 at PAR-1 receptor was found to be 0.0924 µM. This compound had an IC50 at 10 min in data set [1] of at least 50 µM. For the same compound, on hERG channel, the IC50 at 90 min was at least 60 µM.
